Laboratory results published in publication PMC3456874, “Fragment Screening at Adenosine-A3 Receptors in Living Cells Using a Fluorescence-Based Binding Assay” (Chemistry & Biology, 2012).
Where “and” joins values, the source holds several entries; their conditions need not be identical. Identical values can stand only once. Like-named read-outs stand apart in the source and are kept apart here.

Key:
human A3AR [1] = target: T1, human A3AR (Homo sapiens, UniProt P0DMS8); assay: cell-based
T1 sequence (P0DMS8 1-318): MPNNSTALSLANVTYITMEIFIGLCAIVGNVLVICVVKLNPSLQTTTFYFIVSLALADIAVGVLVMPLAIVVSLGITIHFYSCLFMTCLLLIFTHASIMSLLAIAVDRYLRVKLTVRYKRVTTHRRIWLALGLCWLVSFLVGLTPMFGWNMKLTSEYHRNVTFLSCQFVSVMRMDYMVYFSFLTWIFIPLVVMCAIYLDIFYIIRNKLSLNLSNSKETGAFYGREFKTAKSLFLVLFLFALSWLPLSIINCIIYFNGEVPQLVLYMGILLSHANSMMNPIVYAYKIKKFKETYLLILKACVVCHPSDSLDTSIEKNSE

human A3AR [2] = target: T1, human A3AR; assay: High-content fluorescent ligand (CA200645) competition binding assay in live CHO CRE-SPAP cells expressing the A3AR; conditions: for remaining binding at 1000 µM: read-out: % of CA200645 binding (% DMSO control)
human A1AR [3] = target: T2, human A1AR (Homo sapiens, UniProt P30542); assay: cell-based
T2 sequence (P30542 1-326): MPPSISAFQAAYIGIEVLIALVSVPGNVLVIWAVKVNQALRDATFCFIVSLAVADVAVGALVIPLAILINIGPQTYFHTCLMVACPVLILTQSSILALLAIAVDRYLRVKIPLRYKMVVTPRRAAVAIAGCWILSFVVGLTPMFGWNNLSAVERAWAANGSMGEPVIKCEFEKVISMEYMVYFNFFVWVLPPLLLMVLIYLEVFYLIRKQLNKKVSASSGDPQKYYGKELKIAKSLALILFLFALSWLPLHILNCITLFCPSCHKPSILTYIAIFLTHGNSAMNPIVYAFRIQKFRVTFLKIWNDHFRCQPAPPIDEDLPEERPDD

human A3AR [4] = target: T1, human A3AR; assay: CRE-SPAP gene transcription assay (shift of NECA-mediated inhibition of forskolin-stimulated SPAP response)
human A1AR [5] = target: T2, human A1AR; assay: High-content fluorescent ligand (CA200645) competition binding assay in live CHO-A1 cells; conditions: for inhibition at 10 µM: read-out: inhibition of CA200645 binding at the A1AR; for A1 % inhibition (Table S3): top concentration of compound tested, quoted where less than 50% inhibition of total binding
A3-YFP = A3-YFP receptor internalization (granularity analysis) in CHO A3-YFP cells
human A1AR [6] = target: T2, human A1AR
human A3AR [7] = target: T1, human A3AR
[8] = pKi at the adenosine A3 receptor (Table S2), mean ± s.e.m from 3 separate experiments
[9] = A3 pKi (Table S3), mean ± s.e.m

**Q.** For `COc1ccc(-n2ccnc2)cc1` [Compound 6], which Ki (human A3AR [1]) is on record?
**A.** The Ki was 525 µM.

**Q.** With `Nc1ccc(C(F)(F)F)cc1N` [BTB 07340] as the compound, how does the Ki (human A3AR [2]; [8]) read?
**A.** The Ki was 2.95 µM.

**Q.** And the remaining binding at 1000 µM (human A3AR [2])?
**A.** The remaining binding at 1000 µM was 10.3%.

**Q.** `O=C(Nc1cnc2ccccc2c1)c1ccccc1` [Compound 4] was tested. Which Ki (human A3AR [1]) did it give?
**A.** Its Ki is over 100 µM.

**Q.** `COc1ccc(NN=c2[nH]c3ccccc3[nH]c2=O)cc1` [Compound 3] was tested. Which Ki (human A3AR [1]) did it give?
**A.** The Ki was 2.63 µM.

**Q.** With `Nc1cccc(-c2nc3ccccc3[nH]2)c1` [Compound 8] as the compound, how does the Ki (human A3AR [1]) read?
**A.** The Ki was 3.24 µM.

**Q.** Which Ki (human A3AR [1]) does the source give for `Nc1cnc2ccccc2c1` [Compound 5] here?
**A.** Its Ki is over 10000 µM.

**Q.** Which results are given for `COc1ccc(-n2nc3c(NC(=O)c4ccccc4)nc4ccccc4n3c2=O)cc1` [Compound 1]?
**A.** Ki (human A1AR [3]): 1.17 µM; Kb (human A3AR [4]): 0.00166 µM; Ki (human A3AR [1]): 0.00309 µM

**Q.** For `O=C(Nc1ccccc1-c1nc2ccccc2[nH]1)c1cccnc1` [Compound 10], which inhibition at 10 µM (human A1AR [5]) is on record?
**A.** Its inhibition at 10 µM is under 50%.

**Q.** And the “A1 % inhibition (Table S3)” value (human A1AR [5])?
**A.** Its value is 38.9 ± 8.3%.

**Q.** And the “fold increase in A3AR affinity compared to DP01095” value (human A3AR [2])?
**A.** Its value is 3 fold.

**Q.** And the Ki (human A3AR [2]; [9])?
**A.** Its Ki is 0.0977 µM.

**Q.** `Nc1ccccc1-c1nc2ccccc2[nH]1` [DP 01095] was tested. Which remaining binding at 1000 µM (human A3AR [2]) did it give?
**A.** The remaining binding at 1000 µM was 36.3%.

**Q.** And the Ki (human A3AR [1])?
**A.** The Ki was 0.363 µM and 0.331 µM.

**Q.** How did the Kb (human A3AR [4]) turn out when `Nc1nc(NCCc2ccc(O)cc2)nc2nc(-c3ccco3)nn12` [ZM 241385, reference compound] was run?
**A.** The Kb was 0.407 µM.

**Q.** And the Ki (human A3AR [1])?
**A.** The Ki was 0.182 µM.

**Q.** Which results are given for `Nc1ccc2[nH]ncc2c1` [AC 30454]?
**A.** Ki (human A3AR [2]; [8]): 3.16 µM; remaining binding at 1000 µM (human A3AR [2]): 13%

**Q.** What does the source list for `CCCCC#Cc1nc(NC)c2ncn([C@@H]3O[C@H](CO)[C@@H](O)[C@H]3O)c2n1` [HEMADO, reference compound]?
**A.** pIC50 for inhibition of CA200645 binding (agonists) (human A3AR [2]; A3AR, n = 4): 7.23 ± 0.23; A3-YFP internalization / agonist action (A3-YFP): stimulated A3-YFP internalization

**Q.** What does the source list for `COC(=O)C1Cc2ccccc2N1` (centres unmarked) [MO 00997]?
**A.** Ki (human A3AR [2]; [8]): 0.794 µM; remaining binding at 1000 µM (human A3AR [2]): 31.1%

**Q.** `CNC(=O)[C@H]1O[C@@H](n2cnc3c(NCc4cccc(I)c4)nc(Cl)nc32)[C@H](O)[C@@H]1O` [2-Cl IB-MECA] was tested. Which “A3-YFP internalization / agonist action” value (A3-YFP) did it give?
**A.** The value was “stimulated A3-YFP internalization”.

**Q.** For `Cc1cc2cc(N)ccc2[nH]1` [AC 34875], which Ki (human A3AR [2]; [8]) is on record?
**A.** The Ki was 1.2 µM.

**Q.** What about the remaining binding at 1000 µM (human A3AR [2]) of the same compound?
**A.** The remaining binding at 1000 µM was 10.4%.

**Q.** `CCNC(=O)[C@H]1O[C@@H](n2cnc3c(N)nc(NCCc4ccc(CCC(=O)O)cc4)nc32)[C@H](O)[C@@H]1O` [CGS 21680, reference compound] was tested. Which “displacement of CA200645 binding” value (human A3AR [2]; A3AR, agonist competition curves) did it give?
**A.** The value was “only partial displacement”.

**Q.** Which inhibition at 10 µM (human A1AR [5]) does the source give for `O=C(Nc1ccccc1-c1nc2ccccc2[nH]1)c1cccs1` [Compound 12] here?
**A.** Its inhibition at 10 µM is under 50%.

**Q.** What about the “A1 % inhibition (Table S3)” value (human A1AR [5]) of the same compound?
**A.** The value was 47.9 ± 9.7%.

**Q.** What about the Ki (human A3AR [2]; [9]) of the same compound?
**A.** Its Ki is 0.257 µM.

**Q.** `COc1ccc(NC(C)=O)cc1` [Compound 7] was tested. Which Ki (human A3AR [1]) did it give?
**A.** Its Ki is 20.4 µM.

**Q.** `COc1ccc(-n2nc3c(=O)[nH]c4ccccc4n3c2=O)cc1` [Compound 2] was tested. Which Ki (human A3AR [1]) did it give?
**A.** The Ki was 0.0776 µM.

**Q.** For `Cc1cc(N)c(N)cc1Cl` [TL 00770], which Ki (human A3AR [2]; [8]) is on record?
**A.** The Ki was 1 µM.

**Q.** And the remaining binding at 1000 µM (human A3AR [2])?
**A.** Its remaining binding at 1000 µM is 23.5%.

**Q.** Which Ki (human A3AR [1]) does the source give for `Nc1nc2c(cnn2CCc2ccccc2)c2nc(-c3ccco3)nn12` [SCH 58261, reference compound] here?
**A.** The Ki was 0.186 µM.

**Q.** `CNC(=O)[C@H]1O[C@@H](n2cnc3c(NCc4cccc(I)c4)ncnc32)[C@H](O)[C@@H]1O` [IB-MECA] was tested. Which “A3-YFP internalization / agonist action” value (A3-YFP) did it give?
**A.** The value was “caused A3-YFP internalisztion”.

**Q.** With `Nc1nc2ccc(Cl)cc2c2nc(-c3ccco3)nn12` [CGS 15943, reference compound] as the compound, how does the Ki (human A3AR [1]) read?
**A.** The Ki was 0.00661 µM.

**Q.** `CCCn1c(=O)[nH]c2nc(-c3ccc(S(=O)(=O)N4CCN(c5ccc(Cl)cc5)CC4)cc3)[nH]c2c1=O` [PSB 603] was tested. Which Ki (human A1AR [6]) did it give?
**A.** Its Ki is 0.0417 µM.

**Q.** What about the Ki (human A3AR [7]) of the same compound?
**A.** The Ki was 0.0562 µM.

**Q.** How did the inhibition at 100 µM (human A3AR [2]; read-out: % inhibition of CA200645 binding at A3AR) turn out when `Nc1ccc(-c2nc3ccccc3[nH]2)cc1` [Compound 9] was run?
**A.** Its inhibition at 100 µM is 41.2 ± 7.3%.

**Q.** With `O=C(Nc1ccccc1-c1nc2ccccc2[nH]1)c1ccco1` [Compound 11] as the compound, how does the inhibition at 10 µM (human A1AR [5]) read?
**A.** Its inhibition at 10 µM is under 50%.

**Q.** And the “A1 % inhibition (Table S3)” value (human A1AR [5])?
**A.** The value was 40.6 ± 7.3%.

**Q.** What about the Ki (human A3AR [2]; [9]) of the same compound?
**A.** Its Ki is 0.166 µM.
